Test results as given in ChEMBL document CHEMBL1159010, “Constituents of Azadirachta indica: isolation and structure elucidation of a new antibacterial tetranortriterpenoid, mahmoodin, and a new protolimonoid, naheedin” (1992).

Key:
Type in all cases: functional
Details in all cases: read-out: IZ
Salmonella = assay: Antimicrobial activity against Salmonella schotmuelleri at 10 mg
Enterococcus faecalis = assay: Antimicrobial activity against Streptococcus faecalis at 10 mg
Bacillus cereus = assay: Antimicrobial activity against Bacillus cereus at 10 mg
Staphylococcus aureus = assay: Antimicrobial activity against Staphylococcus aureus at 10 mg
Bacillus subtilis = assay: Antimicrobial activity against Bacillus subtilis at 10 mg
Shigella sonnei = assay: Antimicrobial activity against Shigella sonnei at 10 mg
Streptococcus pyogenes = assay: Antimicrobial activity against Streptococcus pyogenes at 10 mg
Corynebacterium xerosis = assay: Antimicrobial activity against Corynebacterium xerosis at 10 mg
Klebsiella pneumoniae = assay: Antimicrobial activity against Klebsiella pneumoniae at 10 mg

CC(=O)O[C@@H]1C[C@H]2C(C)(C)C(=O)C=C[C@]2(C)[C@H]2CC[C@]3(C)C(=CC(=O)O[C@@]3(OCCO)c3ccoc3)[C@@]21C
zone of inhibition at 10000 µg/disc (Salmonella): 20 mm | zone of inhibition at 10000 µg/disc (Enterococcus faecalis): 22 mm | zone of inhibition at 10000 µg/disc (Bacillus cereus): 18 mm | zone of inhibition at 10000 µg/disc (Staphylococcus aureus): 17 mm | zone of inhibition at 10000 µg/disc (Bacillus subtilis): 20 mm | zone of inhibition at 10000 µg/disc (Shigella sonnei): 16 mm | zone of inhibition at 10000 µg/disc (Streptococcus pyogenes): 28 mm | zone of inhibition at 10000 µg/disc (Corynebacterium xerosis): 17 mm | zone of inhibition at 10000 µg/disc (Klebsiella pneumoniae): 15 mm
